Type in all cases: cell-based
Experiment [1] concerns K. pneumoniae A-651. Nature of the experiment: Bacterial growth minimal inhibitory concentration, microdilution in cation-adjusted Mueller-Hinton Broth (CLSI M7-A7). To be noted: Klebsiella pneumoniae, A651; multiply-resistant strain (in particular quinolone-resistant); read-out: MIC for K. Pneumoniae A-651. Here is the method:
(§1) Minimal Inhibitory Concentrations (MICs; mg/L) were determined in cation-adjusted Mueller-Hinton Broth by a microdilution method following the description given in “Methods for Dilution Antimicrobial Susceptibility Tests for Bacteria that Grow Aerobically”, Approved standard, 7th ed., Clinical and Laboratory Standards Institute (CLSI) Document M7-A7, Wayne, Pa., U.S.A. (2006).
(§2) All Example compounds were tested against several Gram-positive and Gram-negative bacteria. […] K. pneumoniae A-651 is a multiply-resistant strain (in particular quinolone-resistant), while E. coli ATCC25922 and P. aeruginosa ATCC27853 are quinolone-sensitive strains.
In general terms: Broth dilution looks for growth in wells or tubes with falling amounts of substance.

In experiment [2] the test system is E. coli ATCC25922. The description is as above. Particulars: Escherichia coli, ATCC25922; quinolone-sensitive strain; read-out: MIC for E. coli ATCC25922. As to the method:
as §1, §2

The test system of experiment [3] is P. aeruginosa ATCC27853. Described as above. To be noted: Pseudomonas aeruginosa, ATCC27853; quinolone-sensitive strain; read-out: MIC for P. aeruginosa ATCC27853. Here is the method: as §1, §2
In experiment [4] the test system is wild-type E. coli A-1261. Description: MIC against wild-type E. coli A-1261 with or without alkaline phosphatase or esterase. Particulars: Escherichia coli. Here is the method: Minimal Inhibitory Concentrations (MICs; mg/L) were determined in cation-adjusted Mueller-Hinton Broth by a microdilution method following the description given in “Methods for Dilution Antimicrobial Susceptibility Tests for Bacteria that Grow Aerobically”, Approved standard, 7th ed., Clinical and Laboratory Standards Institute (CLSI) Document M7-A7, Wayne, Pa., U.S.A. (2006). The compound of Example 31 was tested against wild-type E. coli A-1261 in the absence of alkaline phosphatase, in the presence of an alkaline phosphatase and in the presence of an esterase. The corresponding antibacterial test results are given in Table 2 hereafter (MICs in mg/L).

≈ marks a conversion by molar mass, not a printed value. Like-named read-outs stand apart in the source and are kept apart here.

Consider `C[C@@](CCn1cnc2cc(C#CC#C[C@@H]3C[C@H]3[C@H](O)CO)ccc2c1=O)(C(=O)NO)S(C)(=O)=O` [Example 26, (R)-4-(7-(((1R,2R)-2-((S)-1,2-dihydroxyethyl)cyclopropyl)buta-1,3-diyn-1-yl)-4-oxoquinazolin-3(4H)-yl)-N-hydroxy-2-methyl-2-(methylsulfonyl)butanamide], for which the MIC in experiment [1], in experiment [2] and in experiment [3] was 1 µg/mL (≈ 2.05 µM) each time.

Regarding `C[C@@](CCn1cnc2cc(C#CC#CC3CCC(NC(=O)CN)C3)c(F)cc2c1=O)(C(=O)NO)S(C)(=O)=O.Cl` (stereo partly drawn) [Example 27, (R)-4-(7-((3-(2-aminoacetamido)cyclopentyl)buta-1,3-diyn-1-yl)-6-fluoro-4-oxoquinazolin-3(4H)-yl)-N-hydroxy-2-methyl-2-(methylsulfonyl)butanamide hydrochloride], the MIC amounted to 4 µg/mL in experiment [1], 1 µg/mL in experiment [2] and 8 µg/mL in experiment [3].

Regarding `C[C@@](CCn1cnc2cc(C#CC#C[C@@H]3C[C@H]3CN)c(F)cc2c1=O)(C(=O)NO)S(C)(=O)=O.Cl` [Example 28, (R)-4-(7-(((1R,2R)-2-(aminomethyl)cyclopropyl)buta-1,3-diyn-1-yl)-6-fluoro-4-oxoquinazolin-3(4H)-yl)-N-hydroxy-2-methyl-2-(methylsulfonyl)butanamide hydrochloride], the MIC in experiment [1], in experiment [2] and in experiment [3] was 8 µg/mL in each case.

In the case of `CC(C)(O)C#CC#Cc1cc2ncn(CC[C@](C)(C(=O)NO)S(C)(=O)=O)c(=O)c2cc1F` [Example 29, (R)-4-(6-fluoro-7-(5-hydroxy-5-methylhexa-1,3-diyn-1-yl)-4-oxoquinazolin-3(4H)-yl)-N-hydroxy-2-methyl-2-(methylsulfonyl)butanamide], the MIC in experiment [1] was found to be 1 µg/mL (≈ 2.16 µM); in experiment [2], 1 µg/mL (≈ 2.16 µM); in experiment [3] it was 2 µg/mL (≈ 4.32 µM).

`C[C@@](CCn1cnc2cc(C#CC#CC3(COP(=O)(O)O)CC3)ccc2c1=O)(C(=O)NO)S(C)(=O)=O` [Example 31, (R)-(1-((3-(4-(hydroxyamino)-3-methyl-3-(methylsulfonyl)-4-oxobutyl)-4-oxo-3,4-dihydroquinazolin-7-yl)buta-1,3-diyn-1-yl)cyclopropyl)methyl dihydrogen phosphate]: the MIC in experiment [4] (alkaline phosphatase 2 i.U./mL, read-out: MIC for E. coli A-1261 In the presence of an alkaline phosphatase (2 i.U./mL)) was 0.5 µg/mL; in experiment [4] (esterase 10 i.U./mL, read-out: MIC for E. coli A-1261 In the presence of an esterase (10 i.U./mL)), > 16 µg/mL; in experiment [4] (no alkaline phosphatase or esterase, read-out: MIC for E. coli A-1261 In the absence of alkaline phosphatase or esterase) it was > 16 µg/mL.

For `CN(C)CC#CC#Cc1cc2ncn(CC[C@](C)(C(=O)NO)S(C)(=O)=O)c(=O)c2cc1F.O=CO` [Example 32, (R)-4-(7-(5-(dimethylamino)penta-1,3-diyn-1-yl)-6-fluoro-4-oxoquinazolin-3(4H)-yl)-N-hydroxy-2-methyl-2-(methylsulfonyl)butanamide formate], the MIC in experiment [1] is 0.5 µg/mL; in experiment [2], 0.25 µg/mL; in experiment [3], 2 µg/mL.

`C[C@@](CCn1cnc2cc(C#CC#CC3(CO)CCC3)c(F)cc2c1=O)(C(=O)NO)S(C)(=O)=O` [Example 34, (R)-4-(6-fluoro-7-((1-(hydroxymethyl)cyclobutyl)buta-1,3-diyn-1-yl)-4-oxoquinazolin-3(4H)-yl)-N-hydroxy-2-methyl-2-(methylsulfonyl)butanamide]: the values for the MIC in experiment [1], in experiment [2] and in experiment [3] were 1 µg/mL (≈ 2.04 µM), 0.25 µg/mL (≈ 0.511 µM) and 2 µg/mL (≈ 4.09 µM), respectively.

Consider `C[C@@](CCn1cnc2cc(C#CC#CCC3(O)COC3)c(F)cc2c1=O)(C(=O)NO)S(C)(=O)=O` [Example 35, (R)-4-(6-fluoro-7-(5-(3-hydroxyoxetan-3-yl)penta-1,3-diyn-1-yl)-4-oxoquinazolin-3(4H)-yl)-N-hydroxy-2-methyl-2-(methylsulfonyl)butanamide], for which the MIC in experiment [1], in experiment [2] and in experiment [3] was 4 µg/mL (≈ 8.14 µM) throughout.

The values above are taken from US9796686B2, “Antibacterial quinazoline-4(3H)-one derivatives” (priority 2014, dated 2017).
